Test [1] addresses FAD-linked sulfhydryl oxidase ALR (Homo sapiens, UniProt P55789). The test is described as follows: inhibitors of human ALR sulfhydryl oxidase, dose response, biochemical, H2O2 detection, luminescence, cherry-pick (AID 493248).
Test [2] has as its target T1, Heat shock factor protein 1 (Mus musculus, UniProt P38532).
T1 sequence (P38532 whole entry): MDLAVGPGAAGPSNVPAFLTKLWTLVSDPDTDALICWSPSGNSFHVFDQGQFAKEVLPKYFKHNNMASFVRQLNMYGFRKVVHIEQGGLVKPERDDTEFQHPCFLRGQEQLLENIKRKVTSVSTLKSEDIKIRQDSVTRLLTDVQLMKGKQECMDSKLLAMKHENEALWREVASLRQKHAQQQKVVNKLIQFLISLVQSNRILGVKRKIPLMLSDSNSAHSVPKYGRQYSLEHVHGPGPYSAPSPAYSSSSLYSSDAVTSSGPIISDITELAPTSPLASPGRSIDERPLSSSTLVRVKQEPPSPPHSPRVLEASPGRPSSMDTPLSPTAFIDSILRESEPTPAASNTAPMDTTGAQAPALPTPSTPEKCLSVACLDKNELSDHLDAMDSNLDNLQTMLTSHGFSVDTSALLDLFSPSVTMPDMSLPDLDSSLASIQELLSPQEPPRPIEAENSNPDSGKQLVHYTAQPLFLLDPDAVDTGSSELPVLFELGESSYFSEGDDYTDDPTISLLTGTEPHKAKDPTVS
The test is described as follows: HSF1 potentiators in luciferase reporter cells, confirmation, cell-based, NIH3T3, luminescence, dose retest (AID 435004).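 Also: stress induced by proteasome inhibitor MG132 added 30 min after compound; luciferase reporter driven by HSF1 response element in NIH3T3 cells; actives raise luminescence as potentiators of the MG132 stress response.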 In kind it is functional. (In general: In a reporter assay the amount or activity of a reporter protein is the signal.)

Test [3] in a line: Luminescence Cell-Based Dose Response HTS to Identify Inhibitors of 5'UTR Stem-Loop Driven Prion Protein mRNA Translation in H4 Neuroglioblastoma Cells. [Related pubchem assays: 1827 (Project Summary), 1813 (Primary HTS)]. In kind it is functional.
Test [4] can be described thus: inhibitors of SNCA 5'UTR-driven reporter translation, confirmation, H4 neuroglioma cells, luminescence (AID 1988). Type of test: functional, cell-based.
Test [5] in a line: inhibitors of firefly luciferase expression or activity, dose response, H4 neuroglioma cells, luminescence (AID 1990). Type of test: functional, cell-based.
The nature of test [6]: Luminescence Cell-Based Dose Confirmation HTS to Identify Inhibitors of Platelet Dense Granule Release. [Related pubchem assays: 1663 (Primary HTS), 1678 (Summary of Project)]. In kind it is functional.
Test [7] has as its target Luciferin 4-monooxygenase (Photinus pyralis, UniProt P08659). In words: firefly luciferase enzyme inhibitors, dose response, biochemical, luminescence (AID 1891).
Test [8] deals with T2, Polyadenylate-binding protein 1 (Homo sapiens, UniProt P11940). The test is described as follows: PABP1 MLLE–PAM2 interaction inhibitors, dose response, miRNA deadenylation inhibitor project, biochemical, fluorescence polarization, Cy5-PAM2 peptide, secondary (AID 602260). In kind it is functional. As to conditions: read-out: IC50_Mean. A general note: Polarisation of emitted light reports the rotation of a fluorescent probe.
T2 sequence (P11940 whole entry): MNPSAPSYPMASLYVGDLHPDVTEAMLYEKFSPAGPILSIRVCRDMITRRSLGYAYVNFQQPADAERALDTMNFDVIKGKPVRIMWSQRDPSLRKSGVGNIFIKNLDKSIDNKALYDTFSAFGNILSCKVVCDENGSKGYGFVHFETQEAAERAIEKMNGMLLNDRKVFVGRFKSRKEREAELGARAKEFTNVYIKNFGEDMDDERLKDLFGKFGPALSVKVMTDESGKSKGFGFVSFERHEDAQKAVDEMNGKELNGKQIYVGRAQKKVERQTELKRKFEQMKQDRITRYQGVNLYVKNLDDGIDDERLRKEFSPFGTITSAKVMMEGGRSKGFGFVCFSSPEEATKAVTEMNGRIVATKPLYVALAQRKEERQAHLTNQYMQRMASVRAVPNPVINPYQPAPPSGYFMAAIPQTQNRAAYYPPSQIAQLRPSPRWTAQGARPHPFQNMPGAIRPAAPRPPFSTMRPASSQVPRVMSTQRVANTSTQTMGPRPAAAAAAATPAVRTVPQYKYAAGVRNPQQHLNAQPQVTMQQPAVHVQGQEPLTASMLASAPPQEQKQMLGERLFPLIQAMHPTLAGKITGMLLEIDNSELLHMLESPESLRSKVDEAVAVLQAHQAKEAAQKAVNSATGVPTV

The target in test [9] is T3, Zinc finger protein mex-5 (Caenorhabditis elegans, UniProt Q9XUB2).
T3 sequence (Q9XUB2 whole entry): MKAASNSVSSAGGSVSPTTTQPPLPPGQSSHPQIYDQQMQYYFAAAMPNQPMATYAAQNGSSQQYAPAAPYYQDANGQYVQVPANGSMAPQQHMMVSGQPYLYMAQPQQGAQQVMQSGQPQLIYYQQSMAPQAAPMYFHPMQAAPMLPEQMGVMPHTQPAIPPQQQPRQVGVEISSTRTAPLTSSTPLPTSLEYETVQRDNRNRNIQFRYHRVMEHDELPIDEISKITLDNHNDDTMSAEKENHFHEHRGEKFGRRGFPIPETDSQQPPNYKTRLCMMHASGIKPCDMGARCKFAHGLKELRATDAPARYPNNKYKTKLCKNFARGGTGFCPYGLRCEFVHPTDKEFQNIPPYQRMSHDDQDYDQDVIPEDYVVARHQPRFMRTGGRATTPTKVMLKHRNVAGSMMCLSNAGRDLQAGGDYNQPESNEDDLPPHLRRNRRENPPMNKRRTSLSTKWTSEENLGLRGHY
The test is described as follows: MEX-5/TCR-2 RNA interaction inhibitors, dose response, biochemical, C. elegans, fluorescence polarization (AID 1960).

Test [10] deals with T4, RNA-binding protein pos-1 (Caenorhabditis elegans, UniProt G5EF15).
T4 sequence (G5EF15 whole entry): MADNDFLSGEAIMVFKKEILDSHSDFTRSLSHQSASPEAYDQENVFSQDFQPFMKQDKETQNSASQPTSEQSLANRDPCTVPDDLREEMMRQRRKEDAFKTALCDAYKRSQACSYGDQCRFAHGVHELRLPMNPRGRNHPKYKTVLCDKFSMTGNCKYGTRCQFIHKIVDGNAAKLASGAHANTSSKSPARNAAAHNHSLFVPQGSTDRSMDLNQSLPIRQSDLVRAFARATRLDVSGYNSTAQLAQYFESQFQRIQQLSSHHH
The test is described as follows: inhibitors of POS-1/mex-3 RNA binding, dose response, biochemical, fluorescence polarization (AID 1964).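 Also: purified POS-1 fused to maltose binding protein made in E. coli; potency of compounds blocking POS-1 binding to fluorescent RNA.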

The target in test [11] is T2, Polyadenylate-binding protein 1. The test is described as follows: PABP1 MLLE–PAM2 binding inhibitor potency, dose response, biochemical, fluorescence polarization, FITC-PAM2 peptide (AID 602259). Type of test: functional. As to conditions: read-out: IC50_Mean.
Test [12] in a line: C. albicans growth with fluconazole, confirmation, fluorescence, retest (AID 2467). In kind it is functional, cell-based.
The nature of test [13]: NIH-3T3 fibroblast cytotoxicity, dose response, cytotoxicity control, cell-based, fluorescence, Alamar Blue, secondary assay (AID 2327).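 Also: NIH-3T3 mouse fibroblasts cultured with fluconazole at 8 µg/mL.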 Type of test: functional. Background: The colour change of resazurin is a common sign of viable cells or microbes.
Test [14] in a line: Luminescence Cell-Based Dose Retest to Confirm Inhibitors of Cancer Stem Cells. [Related pubchem assays (depositor defined):AID2717, AID2721]. Type of test: functional. As to conditions: Homo sapiens.

This passage reports AC50, EC50 and IC50 results from ChEMBL document CHEMBL1201862, “PubChem BioAssay data set” (2004).

Structures are written as SMILES. Calls of active or inactive are those of the source. Rule as the data show it, for most assays here: actives have a measured EC50 and inactives only a lower limit. Where only a bound is given, the exact number is not on record here.

Chain of FAD-linked sulfhydryl oxidase ALR (P55789 whole entry): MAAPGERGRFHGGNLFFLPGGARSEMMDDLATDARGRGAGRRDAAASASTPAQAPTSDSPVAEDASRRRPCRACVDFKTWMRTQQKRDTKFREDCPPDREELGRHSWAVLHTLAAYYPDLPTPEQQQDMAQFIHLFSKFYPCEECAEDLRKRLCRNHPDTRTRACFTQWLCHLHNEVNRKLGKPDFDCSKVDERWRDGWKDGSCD
Chain of Luciferin 4-monooxygenase (P08659 whole entry): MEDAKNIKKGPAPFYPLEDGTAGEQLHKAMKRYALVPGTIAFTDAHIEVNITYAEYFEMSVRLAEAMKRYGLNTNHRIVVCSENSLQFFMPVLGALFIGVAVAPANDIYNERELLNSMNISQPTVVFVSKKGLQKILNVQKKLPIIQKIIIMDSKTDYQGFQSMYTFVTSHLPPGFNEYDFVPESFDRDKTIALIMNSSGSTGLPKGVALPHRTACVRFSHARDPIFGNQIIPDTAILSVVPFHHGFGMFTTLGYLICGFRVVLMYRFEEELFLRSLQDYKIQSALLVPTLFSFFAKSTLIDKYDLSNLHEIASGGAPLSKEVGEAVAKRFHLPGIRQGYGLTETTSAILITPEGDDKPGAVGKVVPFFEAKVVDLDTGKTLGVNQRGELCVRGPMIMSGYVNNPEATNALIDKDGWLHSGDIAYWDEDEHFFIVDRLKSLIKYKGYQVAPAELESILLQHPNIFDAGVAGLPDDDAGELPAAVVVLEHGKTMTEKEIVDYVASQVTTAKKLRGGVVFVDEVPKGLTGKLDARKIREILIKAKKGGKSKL

One may read the AC50 as the midpoint of the concentration-response curve, whichever way the signal moves. Take `Nc1cc(=O)[nH]n1C1CCN(c2ccccc2)CC1`: the AC50 in test [1] is 2.61 µM (active).

A word on the EC50: it is the midpoint of the concentration-response curve. Consider `N#Cc1ccsc1NC(=O)CN1CCN(S(=O)(=O)c2ccc3ccccc3c2)CC1`, for which the EC50 in test [2] was > 260 µM (inactive). With `CCOC(=O)c1c(NC(=O)c2nn(CC)cc2Br)c(C#N)nn1-c1ccccc1`, the EC50 in [3] is > 120 µM (not active); in test [4], > 120 µM (not active); in test [5] it was 22.5 µM (active); in test [2], > 260 µM (inactive). On to `O=S(=O)(NCC(c1ccco1)N1CCc2ccccc21)c1ccccc1` (stereo unspecified), for which the concentration at half-maximal activity (AC50) in test [1] was 2.49 µM (active). Turning to `Cc1occc1C(=O)O/N=C(\N)c1ccccc1`, the concentration for a half-maximal effect (EC50) is 2.59 µM (active) in test [6] and 3.91 µM (active) in test [7].

As to `Cc1ccc([N+](=O)[O-])cc1S(=O)(=O)Nc1ccc(O)c(Sc2nc[nH]n2)c1`, the IC50 in test [8] and in test [11] was > 66 µM (inactive) each time. Besides, the 50% effective concentration (EC50) in [9] is 9.83 µM (inconclusive); in test [10], 9.8 µM (active).

For `Cc1ccccc1-n1c(-c2ccc(Cl)cc2)cnc1SCC(=O)NC1CCS(=O)(=O)C1` (stereo unspecified), the EC50 in [2] is > 260 µM (inactive).

Consider `C=CCn1c(S)nnc1Cc1cccc2ccccc12`, for which the AC50 in test [1] is 23.3 µM (active).

As for `CCN(CCNC(=O)CN1CCN(Cc2ccc(Cl)cc2)C1=O)c1ccccc1`, the EC50 in test [2] is > 260 µM (inactive). With `O=C(NNC(=O)c1ccccc1O)c1cccc(Br)c1`, the concentration giving a half-maximal response (EC50) in [9] is 25.6 µM (active); in test [10] it was 41 µM (active). `CCCc1n[nH]c2c1C(c1cc(OC)ccc1F)C(C#N)=C(N)O2` (stereo unspecified): the EC50 in [2] was > 260 µM (inactive).

Take `O=C(COC(=O)c1cnc(O)nc1O)Nc1ccccc1Br`: the EC50 in test [6] and in [7] was > 112 µM (not active) in each case. On to `Cc1nc(/C=C2\C(=O)Nc3ccccc32)c[nH]1`, for which the EC50 in test [9] and in test [10] was > 300 µM (not active) each time. As to `COC(=O)c1c(C)[nH]c(C(=O)OCC(=O)N2c3ccccc3NC(=O)C2(C)C)c1C`, the EC50 in [6] and in test [7] was > 112 µM (not active) throughout.

As to `CC(C)c1ccc(/C=C(\NC(=O)c2ccccc2)C(=O)NCCN2CCOCC2)cc1`, the EC50 in test [9] and in test [10] was > 300 µM (not active) in each case. As for `COCCCNC(CC(=O)Nc1cc(C)cc(C)c1)C(=O)O` (stereo unspecified), the EC50 in [9] and in [10] was > 300 µM (not active) throughout. On to `CCN(CC)c1ccc(CN(C(=O)c2cc(OC)c(OC)c(OC)c2)C2CCS(=O)(=O)C2)cc1` (stereo unspecified), for which the AC50 in [1] was 9.07 µM (active). For `CCCCN(C)C(=O)C1CCC(CNS(=O)(=O)c2ccc3c(c2)CC(C)N3C(=O)C2CC2)CC1` (stereo unspecified), the EC50 in [2] is > 260 µM (inactive). For the compound `Cc1ccc(NC(=O)COC(=O)[C@H](C)NC(=O)c2ccccc2)cc1S(=O)(=O)N1CCOCC1`, the EC50 in test [6] and in test [7] was > 112 µM (not active) throughout. Consider `CCOC(=O)c1c(N)sc(C(=O)Nc2ccc3c(c2)OCO3)c1C`, for which the concentration for a half-maximal effect (EC50) in test [6] was 3.34 µM (active); in test [7], 1.28 µM (active). With `Cc1cc(C)n2nc(N)c(N=Nc3cccc(Cl)c3)c2n1`, in test [2], the EC50 was > 260 µM (inactive). Turning to `CCc1nnc(NS(=O)(=O)c2ccc(NCc3ccccc3O)cc2)s1`, the EC50 in [6] and in test [7] was > 112 µM (not active) in each case. As to `COc1ccnc(N2CCN(c3ccccc3)CC2)c1C#N`, the EC50 in [12] was > 38 µM (not active); in test [13], > 160 µM (inactive). Also, the AC50 in test [1] is 1.27 µM (active). Turning to `COc1ccc2sc(-c3ccc(SC)cc3)c(C#CCO)c2c1`, in test [14], the AC50 is 9.22 µM (active). Regarding `CN(c1ccc(C(=O)Nc2ccc3c(c2)OCO3)cc1)S(C)(=O)=O`, the EC50 in [6] was 6 µM (active); in test [7], 26.3 µM (active). As to `CCCCN(C)C(=O)CCC(=O)NNc1nc2ccccc2c2nc(C)nn12`, the EC50 was 5.37 µM (active) in test [9] and > 300 µM (not active) in test [10].

With `CN1C(=O)NC(=O)/C(=C/c2ccc[nH]2)C1=O`, the EC50 in test [9] and in [10] was > 300 µM (not active) throughout.

Regarding `Cc1cccc(C(=N)NOC(=O)c2ccc3c(c2)OCO3)c1`, the EC50 was 1.47 µM (active) in [6] and 0.838 µM (active) in test [7]. As for `Cc1cccc(/C=N/n2c(S)nnc2-c2ccccn2)c1`, the AC50 in [1] is 67.5 µM (active). For `CC1=CC2=C(OC1N(C)C)c1cccc3cccc(c13)C2=O` (stereo unspecified), the EC50 was > 38 µM (not active) in test [12], > 150 µM (inactive) in test [13] and > 260 µM (inactive) in test [2]. Regarding `COCCN1CCN(C(=O)c2ccc3nc(Cc4ccccc4F)oc3c2)CC1`, the EC50 in test [6] and in test [7] was > 112 µM (not active) throughout. Consider `COc1cc2c(cc1OC)-c1cc(Nc3cccc(F)c3)nc(=O)n1CC2`, for which the EC50 in [6] was 1.08 µM (active); in test [7] it was > 112 µM (not active). In the case of `CSCC(C)N1CCC(Oc2cccc(C(=O)NCc3ccccn3)c2)CC1` (stereo unspecified), the IC50 is 34.1 µM (inactive) in test [8] and 31.6 µM (inactive) in test [11]. The EC50 is 75.4 µM (active) in test [9] and 34.9 µM (active) in [10].

With `O=c1c2c(O)cc(-c3ccccc3)nc2[nH]n1-c1ccccc1`, the AC50 in test [1] is 3.54 µM (active). With `CC(C)c1ccc(/C=C2\C(=N)N3N=C(CC(=O)N4CCCCC4)SC3=NC2=O)cc1`, in [1], the AC50 was 5.61 µM (active). Take `CN(C)C1=NC(=O)/C(=C/c2ccc(-c3ccc(S(N)(=O)=O)cc3)o2)S1`: the EC50 in [9] and in test [10] was > 300 µM (not active) throughout.
